The text below walks through data of patent US20120088660A1, “Antifungal 1,2,4-triazolyl Derivatives” (BASF SE, priority 2009, published 2012).

For this assay, the system named is Phakopsora pachyrhizi. Put plainly: Curative control of soy bean rust on soy beans (greenhouse test). It counts as in vivo. The settings on record: 300 ppm aqueous preparation sprayed to run-off after inoculation (curative); soy bean seedlings; assessed after 14 days; untreated plants 60% infected. The method, then: The spray soultions were prepared in several steps: The stock solution were prepared by adding a mixture of acetone and/or dimethylsulfoxide and the wetting agent/emulsifier Wettol, which is based on ethoxylated alkylphenoles, in a relation (volume) solvent-emulsifier of 99 to 1 to 25 mg of the compound to give a total of 10 ml. Water was then added to total volume of 100 ml. This stock solution was diluted with the described solvent-emulsifier-water mixture to the given concentration. 1. Curative Control of Soy Bean Rust on Soy Beans Caused by Phakopsora Pachyrhizi Leaves of pot-grown soy bean seedlings were inoculated with spores of Phakopsora pachyrhizi. To ensure the success of the artificial inoculation, the plants were transferred to a humid chamber with a relative humidity of about 95% and 20 to 24° C. for 24 h. The next day the plants were cultivated for 2 days in a greenhouse chamber at 23-27° C. and a relative humidity between 60 and 80%. Then the plants were sprayed to run-off with an aqueous suspension, containing the concentration of active ingredient or their mixture as described below. The plants were allowed to air-dry. Then the trial plants were cultivated for 14 days in a greenhouse chamber at 23-27° C. and a relative humidity between 60 and 80%. The extent of fungal attack on the leaves was visually assessed as % diseased leaf area.

For `CC(C)(C)C(O)(CCCCOc1ccccc1)Cn1nc[nH]c1=S` (stereo not drawn) [Example 1, 1-(2-tert-Butyl-2-hydroxy-6-phenoxyhexyl)-1H-1,2,4-triazole-5(4H)-thione], the “infection (extent of fungal attack on the leaves, visually assessed as % diseased leaf area)” value was found to be 0%.

Regarding `CC(C)(C)C(O)(CCCCOc1ccccc1F)Cn1nc[nH]c1=S` (stereo not drawn) [Example 2, 1-[2-tert-Butyl-6-(2-fluorophenoxy)-2-hydroxyhexyl]-1H-1,2,4-triazole-5(4H)-thione], the “infection (extent of fungal attack on the leaves, visually assessed as % diseased leaf area)” value turned out to be 0%.

Turning to `CC(C)(C)C(O)(CCCCOc1ccc(F)cc1F)Cn1nc[nH]c1=S` (stereo not drawn) [Example 3, 1-[2-tert-Butyl-6-(2,4-difluorophenoxy)-2-hydroxyhexyl]-1H-1,2,4-triazole-5(4H)-thione], the “infection (extent of fungal attack on the leaves, visually assessed as % diseased leaf area)” value is on record as 0%.

As to `CC(C)(C)C(O)(CCCCOc1ccccc1Cl)Cn1nc[nH]c1=S` (stereo not drawn) [Example 4, 1-[2-tert-Butyl-6-(2-chlorophenoxy)-2-hydroxyhexyl]-1H-1,2,4-triazole-5(4H)-thione], the “infection (extent of fungal attack on the leaves, visually assessed as % diseased leaf area)” value is on record as 0%.

For the molecule `CC(C)(C)C(O)(CCCCOc1ccc(Cl)cc1Cl)Cn1nc[nH]c1=S` (stereo not drawn) [Example 5], the “infection (extent of fungal attack on the leaves, visually assessed as % diseased leaf area)” value is listed as 0%.

Take `CC(C)(C)C(O)(CCCCOc1cccc(Cl)c1)Cn1nc[nH]c1=S` (stereo not drawn) [Example 6, 1-[2-tert-Butyl-6-(3-chlorophenoxy)-2-hydroxyhexyl]-1H-1,2,4-triazole-5(4H)-thione]: the “infection (extent of fungal attack on the leaves, visually assessed as % diseased leaf area)” value worked out at 0%.

Turning to `CC(C)(C)C(O)(CCCCCOc1ccccc1F)Cn1nc[nH]c1=S` (stereo not drawn) [Example 11, 1-[2-tert-butyl-7-(2-fluorophenoxy)-2-hydroxyheptyl]-1H-1,2,4-triazole-5(4H)-thione], the “infection (extent of fungal attack on the leaves, visually assessed as % diseased leaf area)” value was 0%.

With `CC(C)(C)C(O)(CCCCCOc1ccc(F)cc1F)Cn1nc[nH]c1=S` (stereo not drawn) [Example 13, 1-[2-tert-butyl-7-(2,4-difluorophenoxy)-2-hydroxyheptyl]-1H-1,2,4-triazole-5(4H)-thione], the “infection (extent of fungal attack on the leaves, visually assessed as % diseased leaf area)” value is on record as 0%.

Regarding `CC(C)(C)C(O)(CCCCCOc1ccccc1Cl)Cn1nc[nH]c1=S` (stereo not drawn) [Example 16, 1-[2-tert-butyl-7-(2-chlorophenoxy)-2-hydroxyheptyl]-1H-1,2,4-triazole-5(4H)-thione], the “infection (extent of fungal attack on the leaves, visually assessed as % diseased leaf area)” value turned out to be 0%.

For `CC(C)(C)C(O)(CCCCCOc1cccc(Cl)c1)Cn1nc[nH]c1=S` (stereo not drawn) [Example 17, 1-[2-tert-butyl-7-(3-chlorophenoxy)-2-hydroxyheptyl]-1H-1,2,4-triazole-5(4H)-thione], the “infection (extent of fungal attack on the leaves, visually assessed as % diseased leaf area)” value is listed as 0%.

As for `CC(C)(C)C(O)(CCCCCOc1ccc(Cl)cc1)Cn1nc[nH]c1=S` (stereo not drawn) [Example 18, 1-[2-tert-butyl-7-(4-chlorophenoxy)-2-hydroxyheptyl]-1H-1,2,4-triazole-5(4H)-thione], the “infection (extent of fungal attack on the leaves, visually assessed as % diseased leaf area)” value is 0%.

Regarding `Cc1ccc(OCCCCCC(O)(Cn2nc[nH]c2=S)C(C)(C)C)cc1` (stereo not drawn) [Example 20, 1-[2-tert-butyl-7-(4-methylphenoxy)-2-hydroxyheptyl]-1H-1,2,4-triazole-5(4H)-thione], the “infection (extent of fungal attack on the leaves, visually assessed as % diseased leaf area)” value worked out at 0%.
